Drawing on patent publication US8071768B2, “Alkylquinoline and alkylquinazoline kinase modulators” (Janssen Pharmaceutica, N.V., priority 2005, dated 2011), this text covers IC50 for 24 molecules.

This assay deals with T1, TrkB (Homo sapiens, UniProt Q16620).
T1 construct: purchased Upstate 14-507M
T1 sequence (Q16620 32-822): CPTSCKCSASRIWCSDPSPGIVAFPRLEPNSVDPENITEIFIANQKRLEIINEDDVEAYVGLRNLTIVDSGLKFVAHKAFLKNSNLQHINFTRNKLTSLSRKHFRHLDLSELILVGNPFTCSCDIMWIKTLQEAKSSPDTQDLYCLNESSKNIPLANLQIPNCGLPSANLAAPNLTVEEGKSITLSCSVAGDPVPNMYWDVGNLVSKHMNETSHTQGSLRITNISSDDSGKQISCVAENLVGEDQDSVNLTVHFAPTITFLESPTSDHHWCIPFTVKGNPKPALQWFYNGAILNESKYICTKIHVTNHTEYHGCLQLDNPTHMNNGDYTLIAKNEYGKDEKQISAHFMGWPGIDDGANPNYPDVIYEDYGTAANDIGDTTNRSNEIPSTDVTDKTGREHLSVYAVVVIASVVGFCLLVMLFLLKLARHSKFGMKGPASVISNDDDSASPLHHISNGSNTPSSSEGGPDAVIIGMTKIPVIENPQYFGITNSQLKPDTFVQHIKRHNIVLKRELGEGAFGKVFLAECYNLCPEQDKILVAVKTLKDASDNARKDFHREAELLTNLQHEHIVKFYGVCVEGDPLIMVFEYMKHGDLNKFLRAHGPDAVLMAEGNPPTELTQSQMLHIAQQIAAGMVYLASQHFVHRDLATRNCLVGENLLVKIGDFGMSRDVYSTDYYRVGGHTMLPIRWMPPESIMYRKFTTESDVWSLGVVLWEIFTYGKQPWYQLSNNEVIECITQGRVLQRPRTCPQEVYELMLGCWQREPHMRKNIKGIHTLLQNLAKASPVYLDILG
The assay is described as follows: Trk B Fluorescence Polarization Kinase Assay. It is filed as biochemical. As to conditions: uncertainty ±10%. The method, boiled down:
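The TrkB kinase reaction (50 nM enzyme, 20 ug/mL poly Glu4Tyr, 150 uM ATP, 5 mM MgCl2, 1% DMSO) ran 30 minutes at room temperature and was stopped with EDTA. Phosphorylation was detected by fluorescence-polarization displacement of a fluorescein phosphopeptide from an anti-phosphotyrosine antibody. IC50 came from a variable-slope sigmoidal fit of triplicates.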
By IC50 is commonly meant the concentration at which inhibition is half-maximal. Low values mean inhibition by little substance, high ones a need for much substance. With `COc1cc2ncnc(C3CCN(C(=O)Nc4ccc(C5=CCNCC5)cc4)CC3)c2cc1OC` [Compound 62, 4-(6,7-Dimethoxy-quinazolin-4-yl)-piperidine-1-carboxylic acid [4-(1,2,3,6-tetrahydro-pyridin-4-yl)-phenyl]-amide], the half-maximal inhibitory concentration (IC50) is more than 10 µM. Molecule `COc1cc2ncnc(C3CCN(C(=O)Nc4ccc(N5CCCCC5)c(Cl)c4)CC3)c2cc1OC` [Compound 71, 4-(6,7-Dimethoxy-quinazolin-4-yl)-piperidine-1-carboxylic acid (3-chloro-4-piperidin-1-yl-phenyl)-amide] had an IC50 of 6.1 µM. In other words, the single-digit micromolar range. `CN(C)[C@@H]1CCN(c2ccc3c(C4CCN(C(=O)Nc5ccc(N6CCOCC6)cc5)CC4)ncnc3c2)C1` [Compound 150, (R)-4-[7-(3-Dimethylamino-pyrrolidin-1-yl)-quinazolin-4-yl]-piperidine-1-carboxylic acid (4-morpholin-4-yl-phenyl)-amide] had an IC50 of more than 42 µM. With `CS(=O)(=O)OCCCOc1ccc2c(C3CCN(C(=O)Nc4ccc(N5CCOCC5)cc4)CC3)ncnc2c1` [Compound 122, Methanesulfonic acid 3-{4-[1-(4-morpholin-4-yl-phenylcarbamoyl)-piperidin-4-yl]-quinazolin-7-yloxy}-propyl ester] the figure was 18.9 µM; with `CC(C)Oc1ccc(NC(=O)N2CCC(c3ncnc4cc(NCCCN5CCN(C)CC5)ccc34)CC2)cc1` [Compound 102, 4-{7-[3-(4-Methyl-piperazin-1-yl)-propylamino]-quinazolin-4-yl}-piperidine-1-carboxylic acid (4-isopropoxy-phenyl)-amide], 0.2 µM; with `CC(C)Oc1ccc(NC(=O)N2CCC(c3ncnc4ccc(C#CCN5CCOCC5)cc34)CC2)cc1` [Compound 15, 4-[6-(3-Morpholin-4-yl-prop-1-ynyl)-quinazolin-4-yl]-piperidine-1-carboxylic acid (4-isopropoxy-phenyl)-amide], 0.8 µM. For `COc1cc2ncnc(C3CCN(C(=O)Nc4ccc(N(C)C)cc4)CC3)c2cc1OC` [Compound 26, 4-(6,7-Dimethoxy-quinazolin-4-yl)-piperidine-1-carboxylic acid (4-dimethylamino-phenyl)-amide], the IC50 was determined as 9.4 µM.

In turn, `COc1cc2ncnc(C3CCN(C(=O)Nc4ccc5[nH]ccc5c4)CC3)c2cc1OC` [Compound 23, 4-(6,7-Dimethoxy-quinazolin-4-yl)-piperidine-1-carboxylic acid (1H-indol-5-yl)-amide] displayed an IC50 of 13.3 µM. With `O=C(Nc1ccc(N2CCOCC2)cc1)N1CCC(c2ncnc3cc(OCCCN4CCOCC4)ccc23)CC1` [Compound 133, 4-[7-(3-Morpholin-4-yl-propoxy)-quinazolin-4-yl]-piperidine-1-carboxylic acid (4-morpholin-4-yl-phenyl)-amide] the figure was more than 42 µM; with `COc1cc2ncnc(C3CCN(C(=O)NC4CCC(C(C)(C)C)CC4)CC3)c2cc1OC` (stereo not drawn) [Compound 54, 4-(6,7-Dimethoxy-quinazolin-4-yl)-piperidine-1-carboxylic acid (4-tert-butyl-cyclohexyl)-amide], 6.2 µM; with `O=C(Nc1ccc(N2CCCC2)nc1)N1CCC(c2ncnc3cc(OCCN4CCOCC4)ccc23)CC1` [Compound 95, 4-[7-(2-Morpholin-4-yl-ethoxy)-quinazolin-4-yl]-piperidine-1-carboxylic acid (6-pyrrolidin-1-yl-pyridin-3-yl)-amide], 3.4 µM. With `CS(=O)(=O)NCCCOc1ccc2c(C3CCN(C(=O)Nc4ccc(N5CCCC5)nc4)CC3)ncnc2c1` [Compound 86, 4-[7-(3-Methanesulfonylamino-propoxy)-quinazolin-4-yl]-piperidine-1-carboxylic acid (6-pyrrolidin-1-yl-pyridin-3-yl)-amide] the figure was 2 µM. With `CN1CCC(COc2ccc3c(C4CCN(C(=O)Nc5ccc(OC6CCC6)nc5)CC4)ncnc3c2)CC1` [Compound 107, 4-[7-(1-Methyl-piperidin-4-ylmethoxy)-quinazolin-4-yl]-piperidine-1-carboxylic acid (6-cyclobutoxy-pyridin-3-yl)-amide] the figure was 0.2 µM; with `COc1cc2ncnc(C3CCN(C(=O)Nc4ccc(C5=CCN(C(=O)OC(C)(C)C)CC5)cc4)CC3)c2cc1OC` [Compound 61, 4-(4-{[4-(6,7-Dimethoxy-quinazolin-4-yl)-piperidine-1-carbonyl]-amino}-phenyl)-3,6-dihydro-2H-pyridine-1-carboxylic acid tert-butyl ester], 40.6 µM.

In turn, `COCCOc1ccc(NC(=O)N2CCC(c3ncnc4cc(OC)c(OC)cc34)CC2)cc1` [Compound 40, 4-(6,7-Dimethoxy-quinazolin-4-yl)-piperidine-1-carboxylic acid [4-(2-methoxy-ethoxy)-phenyl]-amide] displayed an IC50 of more than 42 µM.

For the molecule `O=C(Nc1ccc(N2CCOCC2)cc1)N1CCC(c2ncnc3cc(OCCCN4CCCCC4)ccc23)CC1` [Compound 75], the IC50 is more than 20 µM. Under `CC(C)c1ccc(NC(=O)CN2CCC(c3ncnc4ccccc34)CC2)cc1` [Compound 16, N-(4-Isopropyl-phenyl)-2-(4-quinazolin-4-yl-piperidin-1-yl)-acetamide] stands 2.6 µM; under `CCN1CCN(c2ccc3c(C4CCN(C(=O)Nc5ccc(N6CCOCC6)cc5)CC4)ncnc3c2)CC1` [Compound 136, 4-[7-(4-Ethyl-piperazin-1-yl)-quinazolin-4-yl]-piperidine-1-carboxylic acid (4-morpholin-4-yl-phenyl)-amide], more than 42 µM; under `CN1CCN(CCOc2ccc3c(C4CCN(C(=O)Nc5ccc(N6CCCC6)cc5)CC4)ncnc3c2)CC1` [Compound 157, 4-{7-[2-(4-Methyl-piperazin-1-yl)-ethoxy]-quinazolin-4-yl}-piperidine-1-carboxylic acid (4-pyrrolidin-1-yl-phenyl)-amide], 7.05 µM. Under `CC(C)Oc1ccc(NC(=O)N2CCC(c3ncnc4ccc(OCCCN5CCCC5=O)cc34)CC2)cc1` [Compound 101, 4-{6-[3-(2-Oxo-pyrrolidin-1-yl)-propoxy]-quinazolin-4-yl}-piperidine-1-carboxylic acid (4-isopropoxy-phenyl)-amide] stands 0.3 µM; under `CCN(CC)CC#Cc1ccc2ncnc(C3CCN(C(=O)Nc4ccc(OC(C)C)cc4)CC3)c2c1` [Compound 13, 4-[6-(3-Diethylamino-prop-1-ynyl)-quinazolin-4-yl]-piperidine-1-carboxylic acid (4-isopropoxy-phenyl)-amide], 1.3 µM; under `CC(=O)N1CCC[C@H]1COc1ccc2c(C3CCN(C(=O)Nc4ccc(N5CCCC5)cc4)CC3)ncnc2c1` [Compound 162, (S)-4-[7-(1-Acetyl-pyrrolidin-2-ylmethoxy)-quinazolin-4-yl]-piperidine-1-carboxylic acid (4-pyrrolidin-1-yl-phenyl)-amide], more than 21 µM. `O=C(Nc1ccc(N2CCOCC2)cc1)N1CCC(c2ncnc3cc(N4CCN(CCO)CC4)ccc23)CC1` [Compound 137, 4-{7-[4-(2-Hydroxy-ethyl)-piperazin-1-yl]-quinazolin-4-yl}-piperidine-1-carboxylic acid (4-morpholin-4-yl-phenyl)-amide]: the IC50 was more than 42 µM. With `COc1cc2ncnc(C3CCN(CC(=O)Nc4ccc(C(C)C)cc4)CC3)c2cc1OC` [Compound 9, 2-[4-(6,7-Dimethoxy-quinazolin-4-yl)-piperidin-1-yl]-N-(4-isopropyl-phenyl)-acetamide] the figure was 0.5 µM.
